# Results published in patent US8445505B2 (IRM LLC, priority 2008, dated 2013).
# Target: IGF1R Ba/F3 (Homo sapiens, UniProt P08069)
# Assay: Ba/F3 Cell Viability Inhibition Assay (Tel-TK transformed Ba/F3 lines)
# Type: cell-based, murine
# Design: the printed alternative
# Conditions: Tel-TK (IGF1R) transformed Ba/F3 cells, 48 hours incubation, cell viability (Britelite luminescence)
# Description: Ba/F3 is a murine IL-3-dependent pro-B lymphoma cell line. Parental Ba/F3 cells are used to generate a panel of sublines whose proliferation and survival is rendered IL-3-independent by stable transduction with individual tyrosine kinases activated by fusion with the amino-terminal portion of TEL (amino acid 1-375) or BCR. In order to generate Ba/F3 cell lines transformed by Tel-Tyrosine Kinase (TK) fusions, parental Ba/F3 cells are infected with a retrovirus harboring each TEL-fusion kinase and subjected to puromycin selection and IL-3 withdrawal to obtain IL-3-independent, transformed Ba/F3 cells.
# Each transformed Ba/F3 cells are cultured in RPMI-1640 media (Gibco Cat #11875093, Carlsbad, Calif.) supplemented with 10% FBS (Hyclone Cat #SV30014.03, Logan, Utah), 4.5 g/L glucose (Sigma #G5400, St.Louis, Mo.), 1.5 g/L sodium bicarbonate (Biowhittaker #17-613E, Walkersville, Md.) and Pen/Strep (Gibco #10378-016, Carlsbad, Calif.). Cells are splitted twice weekly.
# The potency of test compounds against various Tel-TK transformed Ba/F3 lines is determined as follows. Exponentially growing BaF3 Tel-TK cells are diluted in fresh medium to 75,000 cells/mL and seeded into 384-well plates (3750 cells/well) at 50 μL/well using a gill liquid dispenser (BioTek, Winooski, Vt., USA). Duplicate plates are run for each cell line. Test and control compounds are serially diluted with DMSO and arrayed in a polypropylene 384-well plate. 50 nL of compound is transferred into the assay plates using a pin-transfer device, and the plates are incubated at 37° C. (5% CO2) for 48 hours. 25 μL Britelite (Perkin Elmer) is added and luminescence is quantified using Analyst GT (Molecular Devices). Custom curve-fitting software is used to produce a logistic fit of percent cell viability as a function of the logarithm of inhibitor concentration. The IC50 is interpolated as the concentration of compound needed to reduce cell viability to 50% of a DMSO control. Parental Ba/F3 cells that are maintained and cultured in presence of IL-3 (1 ng/ml in final) are diluted in fresh medium containing IL-3 (1 ng/ml in final) to 75,000 cells/mL following the same procedure as described above.
# Chain of IGF1R Ba/F3 (P08069 999-1274 limits assumed): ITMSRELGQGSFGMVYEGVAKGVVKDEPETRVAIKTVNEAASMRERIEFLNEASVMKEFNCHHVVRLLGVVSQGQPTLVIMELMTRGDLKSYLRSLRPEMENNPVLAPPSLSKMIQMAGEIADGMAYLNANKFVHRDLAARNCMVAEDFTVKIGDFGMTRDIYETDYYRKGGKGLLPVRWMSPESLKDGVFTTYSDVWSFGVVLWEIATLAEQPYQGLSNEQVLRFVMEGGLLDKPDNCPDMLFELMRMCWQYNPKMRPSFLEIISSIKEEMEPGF
row,Compound,IC50 [nM]
1,"C/C(=N\O)c1cc(C)c(Nc2ncc(Cl)c(Nc3cc(C)[nH]n3)n2)cc1C [Compound 29, 1-(4-(5-chloro-4-(5-methyl-1H-pyrazol-3-ylamino)pyrimidin-2-ylamino)-2,5-dimethylphenyl)ethanone oxime]",51
2,"Cc1cc(Nc2nc(Nc3cc(C)c(C(=O)N(C)C)cc3C)ncc2Cl)n[nH]1 [Compound 30, 4-(5-chloro-4-(5-methyl-1H-pyrazol-3-ylamino)pyrimidin-2-ylamino)-N,N,2,5-tetramethylbenzamide]",539
3,"Cc1cc(Nc2nc(Nc3cc(C)c(C(=O)NCCN(C)C)cc3C)ncc2Cl)n[nH]1 [Compound 31, 4-(5-chloro-4-(5-methyl-1H-pyrazol-3-ylamino)pyrimidin-2-ylamino)-N-(2-(dimethylamino)ethyl)-2,5-dimethylbenzamide]",659
4,"Cc1cc(Nc2nc(Nc3cc(C)c(C(=O)N4CCOCC4)cc3C)ncc2Cl)n[nH]1 [Compound 32, (4-(5-chloro-4-(5-methyl-1H-pyrazol-3-ylamino)pyrimidin-2-ylamino)-2,5-dimethylphenyl)(morpholino)methanone]",451
5,"Cc1cc(Nc2nc(Nc3cc(C)c(C4CCC(=NO)CC4)cc3C)ncc2Cl)n[nH]1 (centres unmarked) [Compound 33, 4-(4-(5-chloro-4-(5-methyl-1H-pyrazol-3-ylamino)pyrimidin-2-ylamino)-2,5-dimethylphenyl)cyclohexanone oxime]",15
6,"CO/N=C(\C)c1cc(C)c(Nc2ncc(Cl)c(Nc3cc(C)[nH]n3)n2)cc1C [Compound 34, 1-(4-(5-chloro-4-(5-methyl-1H-pyrazol-3-ylamino)pyrimidin-2-ylamino)-2,5-dimethylphenyl)ethanone O-methyl oxime]",269
7,"C/C(=N\OCCN(C)C)c1cc(C)c(Nc2ncc(Cl)c(Nc3cc(C)[nH]n3)n2)cc1C [Compound 35, 1-(4-(5-chloro-4-(5-methyl-1H-pyrazol-3-ylamino)pyrimidin-2-ylamino)-2,5-dimethylphenyl)ethanone O-2-(dimethylamino)ethyl oxime]",121
8,"C/C(=N\OCCN1CCOCC1)c1cc(C)c(Nc2ncc(Cl)c(Nc3cc(C)[nH]n3)n2)cc1C [Compound 36, 1-(4-(5-chloro-4-(5-methyl-1H-pyrazol-3-ylamino)pyrimidin-2-ylamino)-2,5-dimethylphenyl)ethanone O-2-morpholinoethyl oxime]",187
9,"Cc1cc(Nc2nc(Nc3cc(C)c([C@H]4CC[C@H](N5CCOCC5)CC4)cc3C)ncc2Cl)n[nH]1 [Compound 37, 5-chloro-N^2-(2,5-dimethyl-4-(4-trans-morpholinocyclohexyl)phenyl)-N^4-(5-methyl-1H-pyrazol-3-yl)pyrimidine-2,4-diamine]",11
10,"Cc1cc(Nc2nc(Nc3cc(C)c([C@H]4CC[C@@H](N5CCOCC5)CC4)cc3C)ncc2Cl)n[nH]1 [Compound 38, 5-chloro-N^2-(2,5-dimethyl-4-(4-cis-morpholinocyclohexyl)phenyl)-N^4-(5-methyl-1H-pyrazol-3-yl)pyrimidine-2,4-diamine]",9
11,"Cc1cc(Nc2nc(Nc3cc(C)c(CN4CCOCC4)cc3C)ncc2Cl)n[nH]1 [Compound 39, 5-Chloro-N^2-(2,5-dimethyl-4-(morpholinomethyl)phenyl)-N^4-(5-methyl-1H-pyrazol-3-yl)pyrimidine-2,4-diamine]",151
12,"Cc1cc(Nc2nc(Nc3cc(C)c(C4CCC(=O)CC4)cc3C)ncc2C(F)(F)F)n[nH]1 [Compound 40, 4-(2,5-dimethyl-4-(4-(5-methyl-1H-pyrazol-3-ylamino)-5-(trifluoromethyl)pyrimidin-2-ylamino)phenyl)cyclohexanone]",49
13,"Cc1cc(Nc2nc(Nc3cc(C)c([C@H]4CC[C@H](O)CC4)cc3C)ncc2C(F)(F)F)n[nH]1 [Compound 41, trans-4-(2,5-dimethyl-4-(4-(5-methyl-1H-pyrazol-3-ylamino)-5-(trifluoromethyl)pyrimidin-2-ylamino)phenyl)cyclohexanol]",25
14,"Cc1cc(Nc2nc(Nc3cc(C)c([C@H]4CC[C@@H](O)CC4)cc3C)ncc2C(F)(F)F)n[nH]1 [Compound 42, cis-4-(2,5-dimethyl-4-(4-(5-methyl-1H-pyrazol-3-ylamino)-5-(trifluoromethyl)pyrimidin-2-ylamino)phenyl)cyclohexanol]",53
15,"Cc1cc(Nc2nc(Nc3cc(C)c([C@H]4CC[C@@H](N5CCCCC5)CC4)cc3C)ncc2Cl)n[nH]1 [Compound 43, Cis-5-chloro-N2-(2,5-dimethyl-4-(4-(pipcridin-1-yl)cyclohexyl)phenyl)-N4-(5-methyl-1H-pyrazol-3-yl)pyrimidine-2,4-diamine]",8
16,"Cc1cc(Nc2nc(Nc3cc(C)c([C@H]4CC[C@H](N5CCCCC5)CC4)cc3C)ncc2Cl)n[nH]1 [Compound 44, Trans-5-chloro-N2-(2,5-dimethyl-4-(4-(piperidin-1-yl)cyclohexyl)phenyl)-N4-(5-methyl-1H-pyrazol-3-yl)pyrimidine-2,4-diamine]",7
17,"Cc1cc(Nc2nc(Nc3cc(C)c([C@H]4CC[C@H](O)CC4)cc3C)ncc2Cl)n[nH]1 [Compound 45, trans-4-(4-(5-chloro-4-(5-rnethyl-1H-pyrazol-3-ylamino)pyrimidin-2-ylamino)-2,5-dimethylphenyl)cyclohexanol]",14
18,"Cc1cc(Nc2nc(Nc3cc(C)c([C@H]4CC[C@H](NC5CC5)CC4)cc3C)ncc2Cl)n[nH]1 [Compound 46, Trans-5-chloro-N2-(4-(4-(cyclopropylamino)cyclohexyl)-2,5-dimethylphenyl)-N4-(5-methyl-1H-pyrazol-3-yl)pyrimidine-2,4-diamine]",16
19,"Cc1cc(Nc2nc(Nc3cc(C)c([C@H]4CC[C@@H](NC5CC5)CC4)cc3C)ncc2Cl)n[nH]1 [Compound 47, Cis-5-chloro-N2-(4-(4-(cyclopropylamino)cyclohexyl)-2,5-dimethylphenyl)-N4-(5-methyl-1H-pyrazol-3-yl)pyrimidine-2,4-diamine]",17
20,"Cc1cc(Nc2nc(Nc3cc(C)c([C@H]4CC[C@@H](N5CCCCC5)CC4)cc3F)ncc2Cl)n[nH]1 [Compound 48, Cis-5-chloro-N2-(2-fluoro-5-methyl-4-(4-(piperidin-1-yl)cyclohexyl)phenyl)-N4-(5-methyl-1H-pyrazol-3-yl)pyrimidine-2,4-diamine]",21
21,"Cc1cc(Nc2nc(Nc3cc(C)c([C@H]4CC[C@H](N5CCCCC5)CC4)cc3F)ncc2Cl)n[nH]1 [Compound 49, Trans-5-chloro-N2-(2-fluoro-5-methyl-4-(4-(piperidin-1-yl)cyclohexyl)phenyl)-N4-(5-methyl-1H-pyrazol-3-yl)pyrimidine-2,4-diamine]",40
22,"Cc1cc(Nc2nc(Nc3cc(C)c([C@H]4CC[C@H](N5CCOCC5)CC4)cc3F)ncc2Cl)n[nH]1 [Compound 50, Trans-5-chloro-N2-(2-fluoro-5-methyl-4-(4-morpholinocyclohexyl)phenyl)-N4-(5-methyl-1H-pyrazol-3-yl)pyrimidine-2,4-diamine]",31
23,"Cc1cc(Nc2nc(Nc3cc(C)c([C@H]4CC[C@@H](N5CCOCC5)CC4)cc3F)ncc2Cl)n[nH]1 [Compound 51, Cis-5-chloro-N2-(2-fluoro-5-methyl-4-(4-morpholinocyclohexyl)phenyl)-N4-(5-methyl-1H-pyrazol-3-yl)pyrimidine-2,4-diamine]",400
